Tests used:
Assay in all cases: relative viability (nuclei count vs DMSO), 5 days (fraction); higher = more cells survive
A-427 = tested on: A-427
In short: (§1)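 Five library-drug doses in √10 steps were combined with a fixed anchor-drug dose, or a single drug was given alone, by pin tool to lung cancer cell lines in 1536-well plates the day after seeding. Nuclei were stained and counted after 5 days. Relative viability is the nuclei count in treated wells over that in vehicle wells, taken as the median of duplicate plates.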

COR-L 105 = tested on: COR-L 105
In short: as §1

H3255 = tested on: H3255
In short: as §1

HCC-44 = tested on: HCC-44
In short: as §1

HCC-827 = tested on: HCC-827
In short: as §1

LCLC-103H = tested on: LCLC-103H
In short: as §1

LOU-NH91 = tested on: LOU-NH91
In short: as §1

LXF-289 = tested on: LXF-289
In short: as §1

NCI-H1792 = tested on: NCI-H1792
In short: as §1

NCI-H1793 = tested on: NCI-H1793
In short: as §1

NCI-H1915 = tested on: NCI-H1915
In short: as §1

NCI-H1944 = tested on: NCI-H1944
In short: as §1

NCI-H1975 = tested on: NCI-H1975
In short: as §1

NCI-H1993 = tested on: NCI-H1993
In short: as §1

NCI-H2023 = tested on: NCI-H2023
In short: as §1

NCI-H2087 = tested on: NCI-H2087
In short: as §1

NCI-H358 = tested on: NCI-H358
In short: as §1

NCI-H520 = tested on: NCI-H520
In short: as §1

SK-MES-1 = tested on: SK-MES-1
In short: as §1

SW 1573 = tested on: SW 1573
In short: as §1

CCNC(=O)c1noc(-c2cc(C(C)C)c(O)cc2O)c1-c1ccc(CN2CCOCC2)cc1 [Luminespib] + C[C@]1(O)C[C@@H](c2nc(-c3ccc4ccc(-c5ccccc5)nc4c3)c3c(N)nccn32)C1 [Linsitinib] (partner 1 µM)
relative viability (A-427; first compound 0.002 µM): 1.12 | relative viability (A-427; first compound 0.006325 µM): 1.09 | relative viability (A-427; first compound 0.02 µM): 0.918 | relative viability (A-427; first compound 0.06325 µM): 1.12 | relative viability (A-427; first compound 0.2 µM): 1.09 | relative viability (COR-L 105; first compound 0.002 µM): 0.843 | relative viability (COR-L 105; first compound 0.006325 µM): 0.811 | relative viability (COR-L 105; first compound 0.02 µM): 0.991 | relative viability (COR-L 105; first compound 0.06325 µM): 0.245 | relative viability (COR-L 105; first compound 0.2 µM): 0.207 | relative viability (H3255; first compound 0.002 µM): 0.929 | relative viability (H3255; first compound 0.006325 µM): 0.868 | relative viability (H3255; first compound 0.02 µM): 0.65 | relative viability (H3255; first compound 0.06325 µM): 0.885 | relative viability (H3255; first compound 0.2 µM): 0.228 | relative viability (HCC-44; first compound 0.002 µM): 0.68 | relative viability (HCC-44; first compound 0.006325 µM): 0.714 | relative viability (HCC-44; first compound 0.02 µM): 0.684 | relative viability (HCC-44; first compound 0.06325 µM): 0.251 | relative viability (HCC-44; first compound 0.2 µM): 0.158 | relative viability (HCC-827; first compound 0.002 µM): 0.922 | relative viability (HCC-827; first compound 0.006325 µM): 0.925 | relative viability (HCC-827; first compound 0.02 µM): 0.937 | relative viability (HCC-827; first compound 0.06325 µM): 0.974 | relative viability (HCC-827; first compound 0.2 µM): 1.02 | relative viability (LCLC-103H; first compound 0.002 µM): 1.14 | relative viability (LCLC-103H; first compound 0.006325 µM): 0.971 | relative viability (LCLC-103H; first compound 0.02 µM): 1.1 | relative viability (LCLC-103H; first compound 0.06325 µM): 1.03 | relative viability (LCLC-103H; first compound 0.2 µM): 1.04 | relative viability (LOU-NH91; first compound 0.002 µM): 0.913 | relative viability (LOU-NH91; first compound 0.006325 µM): 0.923 | relative viability (LOU-NH91; first compound 0.02 µM): 0.649 | relative viability (LOU-NH91; first compound 0.06325 µM): 0.393 | relative viability (LOU-NH91; first compound 0.2 µM): 0.348 | relative viability (LXF-289; first compound 0.002 µM): 0.952 | relative viability (LXF-289; first compound 0.006325 µM): 0.879 | relative viability (LXF-289; first compound 0.02 µM): 1.12 | relative viability (LXF-289; first compound 0.06325 µM): 0.711 | relative viability (LXF-289; first compound 0.2 µM): 0.151 | relative viability (NCI-H1792; first compound 0.002 µM): 0.444 | relative viability (NCI-H1792; first compound 0.006325 µM): 0.469 | relative viability (NCI-H1792; first compound 0.02 µM): 0.212 | relative viability (NCI-H1792; first compound 0.06325 µM): 0.297 | relative viability (NCI-H1792; first compound 0.2 µM): 0.106 | relative viability (NCI-H1793; first compound 0.002 µM): 0.831 | relative viability (NCI-H1793; first compound 0.006325 µM): 0.798 | relative viability (NCI-H1793; first compound 0.02 µM): 0.326 | relative viability (NCI-H1793; first compound 0.06325 µM): 0.16 | relative viability (NCI-H1793; first compound 0.2 µM): 0.147 | relative viability (NCI-H1915; first compound 0.002 µM): 1.12 | relative viability (NCI-H1915; first compound 0.006325 µM): 1.09 | relative viability (NCI-H1915; first compound 0.02 µM): 1.02 | relative viability (NCI-H1915; first compound 0.06325 µM): 1.11 | relative viability (NCI-H1915; first compound 0.2 µM): 1.05 | relative viability (NCI-H1944; first compound 0.002 µM): 1.21 | relative viability (NCI-H1944; first compound 0.006325 µM): 1.1 | relative viability (NCI-H1944; first compound 0.02 µM): 0.791 | relative viability (NCI-H1944; first compound 0.06325 µM): 1.07 | relative viability (NCI-H1944; first compound 0.2 µM): 1.09 | relative viability (NCI-H1975; first compound 0.002 µM): 1.08 | relative viability (NCI-H1975; first compound 0.006325 µM): 0.882 | relative viability (NCI-H1975; first compound 0.02 µM): 0.492 | relative viability (NCI-H1975; first compound 0.06325 µM): 0.156 | relative viability (NCI-H1975; first compound 0.2 µM): 0.141 | relative viability (NCI-H1993; first compound 0.002 µM): 0.829 | relative viability (NCI-H1993; first compound 0.006325 µM): 0.735 | relative viability (NCI-H1993; first compound 0.02 µM): 0.678 | relative viability (NCI-H1993; first compound 0.06325 µM): 0.534 | relative viability (NCI-H1993; first compound 0.2 µM): 0.576 | relative viability (NCI-H2023; first compound 0.002 µM): 0.652 | relative viability (NCI-H2023; first compound 0.006325 µM): 0.575 | relative viability (NCI-H2023; first compound 0.02 µM): 0.732 | relative viability (NCI-H2023; first compound 0.06325 µM): 0.0892 | relative viability (NCI-H2023; first compound 0.2 µM): 0.0832 | relative viability (NCI-H2087; first compound 0.002 µM): 1.01 | relative viability (NCI-H2087; first compound 0.006325 µM): 0.714 | relative viability (NCI-H2087; first compound 0.02 µM): 1.08 | relative viability (NCI-H2087; first compound 0.06325 µM): 0.263 | relative viability (NCI-H2087; first compound 0.2 µM): 0.204 | relative viability (NCI-H358; first compound 0.002 µM): 0.828 | relative viability (NCI-H358; first compound 0.006325 µM): 0.654 | relative viability (NCI-H358; first compound 0.02 µM): 0.649 | relative viability (NCI-H358; first compound 0.06325 µM): 0.129 | relative viability (NCI-H358; first compound 0.2 µM): 0.111 | relative viability (NCI-H520; first compound 0.002 µM): 1.27 | relative viability (NCI-H520; first compound 0.006325 µM): 0.966 | relative viability (NCI-H520; first compound 0.02 µM): 0.94 | relative viability (NCI-H520; first compound 0.06325 µM): 0.134 | relative viability (NCI-H520; first compound 0.2 µM): 0.121 | relative viability (SK-MES-1; first compound 0.002 µM): 1 | relative viability (SK-MES-1; first compound 0.006325 µM): 0.893 | relative viability (SK-MES-1; first compound 0.02 µM): 1.13 | relative viability (SK-MES-1; first compound 0.06325 µM): 0.916 | relative viability (SK-MES-1; first compound 0.2 µM): 0.164 | relative viability (SW 1573; first compound 0.002 µM): 0.88 | relative viability (SW 1573; first compound 0.006325 µM): 0.594 | relative viability (SW 1573; first compound 0.02 µM): 0.707 | relative viability (SW 1573; first compound 0.06325 µM): 0.423 | relative viability (SW 1573; first compound 0.2 µM): 0.123

— the supplement of paper PMC10307832
